By GI50 is commonly meant the concentration at which growth is held to half of that of the control.

GI50 data for 15 molecules are collected here from ChEMBL document CHEMBL3399964, “Nine new diterpenes from the leaves of plantation-grown Cunninghamia lanceolata” (2015).

Each structure is given as a SMILES string. Structures can show the parent of a compound that is named as a salt.

A short description of the test: Growth inhibition of human PC3 cells by colorimetric MTT assay. The test is classed as functional. As to conditions: PC-3. (In general: Tetrazolium dyes change colour on reduction, which living cells bring about.)

Consider `C=CC(=C)[C@H](C[C@H]1C(=C)CC[C@@H]2[C@]1(C)CCC[C@@]2(C)C(=O)O)OO`, for which the GI50 is > 100 µM.

With `C=C/C(C)=C/C[C@H]1C(=C)CC[C@@H]2[C@]1(C)CCC[C@@]2(C)C(=O)O`, the GI50 is > 100 µM.

`C=CC(=C)[C@@H](C[C@H]1C(=C)CC[C@@H]2[C@]1(C)CCC[C@@]2(C)C(=O)O)OO`: the GI50 was determined as 38 µM.

Molecule `Cc1cc2c(C(C)C)ccc(C)c2cc1O` returned a GI50 of 54 µM.

As to `C=CC(=C)[C@@H](C[C@H]1C(=C)CC[C@H]2[C@](C)(CO)CCC[C@]12C)OO`, growth was halved (GI50) at 34.4 µM. This GI50 is about 1.6-fold lower than that of the molecule before.

Regarding `COc1cccc2c1C(=O)c1c(O)c3c(c(O)c1C2=O)C[C@@](O)(C(=O)CO)C[C@@H]3O[C@H]1C[C@H](N)[C@H](O)[C@H](C)O1` [DOXORUBICIN HYDROCHLORIDE], it took 1.1 µM to inhibit growth by half (GI50).

For `C=CC(=C)CC[C@@H]1[C@@]2(C)CCC[C@](C)(COC(=O)/C=C\c3ccccc3)[C@@H]2CC[C@@]1(C)O`, the GI50 is > 100 µM.

`CC(C)c1cc2c3c(c1O)O[C@@H]1CCC(C)(C)[C@H](CC2)[C@@]31C`: it took 27.4 µM to inhibit growth by half (GI50).

Molecule `C=C/C(C)=C/[C@@H](OC(C)=O)[C@H]1C(=C)CC[C@@H]2[C@]1(C)CCC[C@@]2(C)C(=O)OC` returned a GI50 of 58.3 µM. This GI50 lies about 2.1-fold higher than the previous one.

On to `C=C/C(C)=C/[C@@H](OC(C)=O)[C@H]1C(=C)CC[C@@H]2[C@]1(C)CCC[C@@]2(C)C(=O)O`, for which the 50% growth inhibitory concentration (GI50) was determined as 57.2 µM.

The molecule `C=C/C(C)=C/C[C@H]1C(=C)CC[C@H]2[C@](C)(CO)CCC[C@]12C` yielded a GI50 of 35 µM.

As for `C=CC(=C)CC[C@@H]1[C@@]2(C)CCC[C@](C)(COC(=O)/C=C/c3ccccc3)[C@@H]2CC[C@@]1(C)O`, halving of growth (GI50) required 10.6 µM.

In turn, `C=CC(=C)[C@H](C[C@H]1C(=C)CC[C@H]2[C@](C)(CO)CCC[C@]12C)OO` showed a GI50 of 50.9 µM.

Regarding `COc1ccc(-c2cc(=O)c3c(O)cc(O)c(-c4cc(-c5cc(=O)c6c(O)cc(O)cc6o5)ccc4O)c3o2)cc1` [PODOCARPUSFLAVONE A], the GI50 is > 100 µM.

Take `COc1cc(O)c2c(=O)cc(-c3ccc(O)c(-c4c(O)cc(O)c5c(=O)cc(-c6ccc(O)cc6)oc45)c3)oc2c1` [SEQUOIAFLAVONE]: the GI50 stood at 43.3 µM.
